Among the data in patent US11970474B2, “Substituted benzodiazoles and use thereof in therapy” (THOMAS HELLEDAYS STIFTELSE FÖR MEDICINSK FORSKNING, priority 2018, dated 2024) are EC50 and IC50 values, retold here.

For one experiment, the system named is CCL2. As to the kind of experiment: Mouse CCL2 assay in MLE12 cells. It is filed as cell-based. To be noted: MLE12 cells, TNF-α 20 ng/ml, supernatant after 30 hours, HTRF, read-out: CCL2 (EC50). The text has this:
Cisbio mouse CCL2 assay is intended for the quantitative measurement of CCL2 in supernatant using HTRF® technology. The assay is compatible with mouse samples, and is highly specific for CCL2. CCL2 is detected in a sandwich assay format using 2 different specific antibodies, one labeled with Cryptate (donor) and the second with d2 (acceptor). The detection principle is based on HTRF® technology. When the labelled antibodies bind to the same antigen, the excitation of the donor with a light source (laser or flash lamp) triggers a Fluorescence Resonance Energy Transfer (FRET) towards the acceptor, which in turn fluoresces at a specific wavelength (665 nm). The two antibodies bind to the CCL2 present in the sample, thereby generating FRET. Signal intensity is proportional to the number of antigen-antibody complexes formed and therefore to the CCL2 concentration. • Materials: • Cells: MLE12 (Mouse Lung Epithelial cells, SV40 transformed) • Medium: DMEM/F12 (Gibco #11330057), FBS 5% (Gibco #10500064), Pen/Strep 50 U/50 μg/ml (Gibco #15070063) • Cell plates: 384-well, black/clear, TC-treated (Corning #3764) • Source plate: Labcyte LDV 384 (Labcyte #LP-0200) • Compound dilution plate: V-bottom 384-well PP plate (Greiner #781280) • Compounds: 10 mM stocks in DMSO • HTRF plates: 384-well, white, half area, non-binding (Costar #3824) • Mouse CCL2 kit: Cisbio 62MCCL2PEH • Other reagents: Trypsin/EDTA 10× (Gibco #15400054), PBS (Gibco #14190169), Resazurin (Sigma-Aldrich #199303), 1 mg/ml in PBS, TNF-α 200 μg/ml in PBS (Peprotech #300-01A) • Instruments: • Echo liquid handler (Labcyte) • Multidrop Combi (Thermo Scientific) • Sense plate reader (Hidex) Compound Handling:
(§1) Stock solutions (10 mM in DMSO) of compounds were dispensed in V-bottom 384-well plates and the following dilutions were prepared: 10 mM and 0.05 mM. The dilutions were transferred to the source plate. Duplicate 6 points dose-response curves of compounds were nano-dispensed in cell plates (CCL2 assay) and in parallel, 11 points DR curves in duplicates were nano-dispensed for the viability assay. The plates were heat sealed and kept at RT until use.
(§2) MLE12 cells in flasks were washed once with PBS, detached with Trypsin/EDTA, resuspended in fresh medium and counted. Cells were diluted to 3×10^5 cells/ml and seeded with Multidrop Combi in cell plates pre-dispensed with compounds, 25 μl/well (7500 cells/well). The plates were placed, one by one, in a CO2-incubator at 37° C. for 1 hour after which 25 μl/well of TNF-α (final concentration 20 ng/ml) were added. The plates were transferred back to the CO2-incubator placed in a plastic box with wet tissue in the bottom, to avoid evaporation, for 30 hours.
After 30 hours incubation, the plates were spun down 5 minutes at 400 g, and 16 μl/well of the supernatants were transferred to the assay plate. A mCCL2 standard curve was prepared according to the kit protocol and 16 μl/well of the standards were also added to the assay plate.
The anti-CCL2 antibody mix was prepared according to the kit protocol, and 4 μl/well were added to the assay plate. The plate was sealed and incubated over night at RT. After incubation the plate was read in Sense plate reader with Time-resolved FRET protocol (Ex330 nm/Em 620 and 665 nm). After data reduction, the delta ratios were imported to an excel template where the IC50 values were calculated.
(In general: TR-FRET usually uses a lanthanide donor and a delayed reading to cut background.)

The target in another experiment is OGG1 (Homo sapiens (Human), UniProt O15527). As to the kind of experiment: In vitro OGG1 activity assay. It is filed as biochemical. As to conditions: 800 pM OGG1 enzyme, 2 nM human APEX1, 10 nM 8-oxoA:C substrate. In outline: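 Read-out is fluorescein fluorescence, with compounds in DMSO added first, then enzyme and substrate. OGG1 excises its substrate base from a quenched fluorophore-labelled duplex, and surplus APEX1 cuts the resulting apurinic site. The duplex then melts and fluorescence rises in proportion to glycosylase activity.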
Chain of OGG1 (O15527 whole entry): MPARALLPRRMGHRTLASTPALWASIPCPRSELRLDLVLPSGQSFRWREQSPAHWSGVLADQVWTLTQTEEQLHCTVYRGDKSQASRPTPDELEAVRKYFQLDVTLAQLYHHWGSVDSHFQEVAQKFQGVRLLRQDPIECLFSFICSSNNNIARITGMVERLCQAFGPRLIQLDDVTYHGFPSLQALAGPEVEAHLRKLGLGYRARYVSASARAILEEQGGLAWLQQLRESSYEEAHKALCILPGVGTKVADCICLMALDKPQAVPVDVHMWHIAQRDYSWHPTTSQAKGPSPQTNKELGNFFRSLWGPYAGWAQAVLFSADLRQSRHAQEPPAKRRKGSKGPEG

In a further experiment the test system is MLE12 cells. As to the kind of experiment: Cell viability assay in MLE12 cells (resazurin). It is filed as cell-based, mouse. As to conditions: TNF-α 20 ng/ml, resazurin added after 24 hours culture. How it is done:
as §1, §2
After 24 hours culture, resazurin reagent (stock 1 mg/ml in PBS) diluted 1:17 in PBS was added with Multidrop Combi, 10 μl/well, and plates were incubated for 6 hours. Plates were read in Sense plate reader with resorufin protocol (ex544 nm/em595 nm). The results were imported to an excel template where the EC50 values were calculated using XLfit.
For orientation: Resazurin is reduced to fluorescent resorufin, in cell work by metabolically active cells.

Like-named read-outs stand apart in the source and are kept apart here.

What is called EC50 is the midpoint of the concentration-response curve. One may read the IC50 as the concentration that inhibits the measured activity by half. A low value points to greater potency in that assay. Turning to `COc1cc(NC(=O)[C@H]2CC[C@@H](n3c(=O)[nH]c4c(NC(=O)CN5CCOCC5)cccc43)CC2)ccc1C` [Example 285, Cis-N-(3-methoxy-4-methylphenyl)-4-{4-[2-(morpholin-4-yl)acetamido]-2-oxo-2,3-dihydro-1H-1,3-benzodiazol-1-yl}cyclohexane-1-carboxamide], the EC50 in the experiment with CCL2 (Mus musculus, MLE12, 30 h) is more than 33 µM. Also, the IC50 on OGG1 was determined as 0.0451 µM; with MLE12 cells (Mus musculus, MLE12, 24 h) it was 15.9 µM.

Take `COc1ccc(NC(=O)[C@H]2CC[C@@H](n3c(=O)[nH]c4c(Br)cccc43)CC2)c(F)c1F` [Example 154, (Cis)-4-(4-bromo-2-oxo-2,3-dihydro-1H-1,3-benzodiazol-1-yl)-N-(2,3-difluoro-4-methoxyphenyl)cyclohexane-1-carboxamide]: in the experiment on CCL2 (Mus musculus, MLE12, 30 h), the EC50 stood at 52.3 µM. For the same molecule, the IC50 against OGG1 was 0.383 µM; in the experiment on MLE12 cells (Mus musculus, MLE12, 24 h) it was 16.1 µM.

In the case of `COc1cc(NC(=O)[C@H]2CC[C@@H](n3c(=O)[nH]c4c(OCCCN(C)C)cccc43)CC2)ccc1C` [Example 306, Cis-4-{4-[3-(dimethylamino)propoxy]-2-oxo-2,3-dihydro-1H-1,3-benzodiazol-1-yl}-N-(3-methoxy-4-methylphenyl)cyclohexane-1-carboxamide], the half-maximal effective concentration (EC50) with CCL2 (Mus musculus, MLE12, 30 h) was determined as 8.07 µM. Moreover, the IC50 on OGG1 turned out to be 0.00282 µM; with MLE12 cells (Mus musculus, MLE12, 24 h), 7.15 µM.

As for `COc1ccc(NC(=O)[C@H]2CC[C@@H](n3c(=O)[nH]c4c(Br)cccc43)CC2)cn1` [Example 183, Cis-4-(4-bromo-2-oxo-2,3-dihydro-1H-1,3-benzodiazol-1-yl)-N-(6-methoxypyridin-3-yl)cyclohexane-1-carboxamide], the EC50 in the experiment with CCL2 (Mus musculus, MLE12, 30 h) turned out to be 36.2 µM. Also, the IC50 amounted to 0.174 µM against OGG1 and 17 µM in the experiment on MLE12 cells (Mus musculus, MLE12, 24 h).

As to `COc1ccc(NC(=O)[C@H]2CC[C@@H](n3c(=O)[nH]c4c(Cl)cccc43)CC2)cc1` [Example 147, (Cis)-4-(4-chloro-2-oxo-2,3-dihydro-1H-1,3-benzodiazol-1-yl)-N-(4-methoxyphenyl)cyclohexane-1-carboxamide], the 50% effective concentration (EC50) in the experiment on CCL2 (Mus musculus, MLE12, 30 h) came to 32.1 µM. The IC50 was determined as 0.036 µM against OGG1 and 17.9 µM with MLE12 cells (Mus musculus, MLE12, 24 h).

Turning to `COc1ccc(NC(=O)[C@H]2CC[C@@H](n3c(=O)[nH]c4c(Br)cccc43)CC2)cc1C(F)(F)F` [Example 129, (Cis)-4-(4-bromo-2-oxo-2,3-dihydro-1H-1,3-benzodiazol-1-yl)-N-[4-methoxy-3-(trifluoromethyl)phenyl]cyclohexane-1-carboxamide], the EC50 with CCL2 (Mus musculus, MLE12, 30 h) came to 21.6 µM. Moreover, the IC50 against OGG1 came to 0.116 µM; in the experiment on MLE12 cells (Mus musculus, MLE12, 24 h), 9.48 µM.

For the molecule `COc1cc(NC(=O)[C@H]2CC[C@@H](n3c(=O)[nH]c4c(C(=O)NCCN(C)C)cccc43)CC2)ccc1C` [Example 228, N-[2-(Dimethylamino)ethyl]-2-oxo-1-[cis-4-[(3-methoxy-4-methylphenyl)carbamoyl]cyclohexyl]-2,3-dihydro-1H-1,3-benzodiazole-4-carboxamide], the 50% effective concentration (EC50) in the experiment with CCL2 was 11.2 µM; in the experiment with CCL2 (Mus musculus, MLE12, 30 h), 20.8 µM. The IC50 is 0.00015 µM at OGG1; 16.4 µM with MLE12 cells (Mus musculus, MLE12, 24 h); 10.5 µM in the experiment on MLE12 cells.

`COc1cc(NC(=O)[C@H]2CC[C@@H](n3c(=O)[nH]c4c(C(=O)NCCN5CCOCC5)cccc43)CC2)ccc1C` [Example 272, N-[2-(Morpholin-4-yl)ethyl]-2-oxo-1-[cis-4-[(3-methoxy-4-methylphenyl)carbamoyl]cyclohexyl]-2,3-dihydro-1H-1,3-benzodiazole-4-carboxamide]: the EC50 in the experiment with CCL2 (Mus musculus, MLE12, 30 h) is 35.7 µM. The IC50 is 0.00411 µM at OGG1 and 27.1 µM with MLE12 cells (Mus musculus, MLE12, 24 h).

For the molecule `COc1cc(NC(=O)[C@H]2CC[C@@H](n3c(=O)[nH]c4c(NC(=O)CN(C)C)cccc43)CC2)ccc1C` [Example 283, Cis-4-{4-[2-(dimethylamino)acetamido]-2-oxo-2,3-dihydro-1H-1,3-benzodiazol-1-yl}-N-(3-methoxy-4-methylphenyl)cyclohexane-1-carboxamide], in the experiment with CCL2 (Mus musculus, MLE12, 30 h), the EC50 stood at 30.8 µM. The IC50 against OGG1 stood at 0.014 µM; in the experiment with MLE12 cells (Mus musculus, MLE12, 24 h), 19.8 µM.

On to `COc1cc(NC(=O)[C@H]2CC[C@@H](n3c(=O)[nH]c4c(NC(=O)c5cnco5)cccc43)CC2)ccc1C` [Example 301, N-{2-Oxo-1-[cis-4-[(3-methoxy-4-methylphenyl)carbamoyl]cyclohexyl]-2,3-dihydro-1H-1,3-benzodiazol-4-yl}-1,3-oxazole-5-carboxamide], for which the EC50 with CCL2 (Mus musculus, MLE12, 30 h) is 43 µM. For the same molecule, the IC50 against OGG1 was found to be 0.00691 µM; in the experiment with MLE12 cells (Mus musculus, MLE12, 24 h) it was 16.2 µM.

As to `CNCCOc1cccc2c1[nH]c(=O)n2[C@H]1CC[C@@H](C(=O)Nc2ccc(C)c(OC)c2)CC1` [Example 309, Cis-N-(3-methoxy-4-methylphenyl)-4-{4-[2-(methylamino)ethoxy]-2-oxo-2,3-dihydro-1H-1,3-benzodiazol-1-yl}cyclohexane-1-carboxamide], the EC50 with CCL2 (Mus musculus, MLE12, 30 h) stood at 27.8 µM. Moreover, the IC50 on OGG1 turned out to be 0.00326 µM; in the experiment on MLE12 cells (Mus musculus, MLE12, 24 h), 15.6 µM.

In the case of `Nc1ccc(-c2cccc3c2[nH]c(=O)n3C2CCN(C(=O)Nc3ccc(Cl)c(Cl)c3)CC2)cn1` [Example 39, 4-[4-(6-Aminopyridin-3-yl)-2-oxo-2,3-dihydro-1H-1,3-benzodiazol-1-yl]-N-(3,4-dichlorophenyl)piperidine-1-carboxamide], the EC50 with CCL2 (Mus musculus, MLE12, 30 h) amounted to 15.1 µM. Besides, the IC50 on OGG1 worked out at 0.788 µM; in the experiment on MLE12 cells (Mus musculus, MLE12, 24 h) it was 6.5 µM.

Take `COc1cc(NC(=O)[C@H]2CC[C@@H](n3c(=O)[nH]c4c(N5CCNCC5)cccc43)CC2)ccc1C` [Example 240, Cis-N-(3-methoxy-4-methylphenyl)-4-[2-oxo-4-(piperazin-1-yl)-2,3-dihydro-1H-1,3-benzodiazol-1-yl]cyclohexane-1-carboxamide]: in the experiment with CCL2 (Mus musculus, MLE12, 30 h), the half-maximal effective concentration (EC50) amounted to 21.5 µM. The IC50 came to 0.0153 µM against OGG1 and 16.1 µM in the experiment with MLE12 cells (Mus musculus, MLE12, 24 h).

Take `O=c1[nH]c2c(Br)cccc2n1[C@H]1CC[C@@H](C(=O)Nc2ccc(F)cc2)CC1` [Example 136, (Cis)-4-(4-bromo-2-oxo-2,3-dihydro-1H-1,3-benzodiazol-1-yl)-N-(4-fluorophenyl)cyclohexane-1-carboxamide]: in the experiment with CCL2 (Mus musculus, MLE12, 30 h), the EC50 worked out at 23.8 µM. Moreover, the half-inhibitory concentration (IC50) against OGG1 worked out at 0.501 µM; in the experiment on MLE12 cells (Mus musculus, MLE12, 24 h), 8.86 µM.

Take `COc1cc(NC(=O)[C@H]2CC[C@@H](n3c(=O)[nH]c4c(NC(=O)c5cc(C)on5)cccc43)CC2)ccc1C` [Example 300, 5-Methyl-N-{2-oxo-1-[cis-4-[(3-methoxy-4-methylphenyl)carbamoyl]cyclohexyl]-2,3-dihydro-1H-1,3-benzodiazol-4-yl}-1,2-oxazole-3-carboxamide]: the EC50 in the experiment with CCL2 (Mus musculus, MLE12, 30 h) worked out at 2.11 µM. Besides, the IC50 against OGG1 worked out at 0.0099 µM; in the experiment with MLE12 cells (Mus musculus, MLE12, 24 h), 1.58 µM.

For the molecule `COc1cc(NC(=O)[C@H]2CC[C@@H](n3c(=O)[nH]c4c(OCCN(C)C)cccc43)CC2)ccc1C` [Example 304, Cis-4-{4-[2-(dimethylamino)ethoxy]-2-oxo-2,3-dihydro-1H-1,3-benzodiazol-1-yl}-N-(3-methoxy-4-methylphenyl)cyclohexane-1-carboxamide], in the experiment on CCL2 (Mus musculus, MLE12, 30 h), the EC50 amounted to 10.6 µM. Further, the IC50 at OGG1 is 0.0038 µM; in the experiment on MLE12 cells (Mus musculus, MLE12, 24 h) it was 8.27 µM.
